Like-named read-outs stand apart in the source and are kept apart here.
What was measured:
KRAS G12C = KRAS G12C (Homo sapiens, UniProt P01116, G12C); test: GDP-GTP exchange assay (fluorescence based guanine nucleotide exchange, bodipy-GDP for GppNHp, SOS1); type: biochemical; conditions: bodipy-loaded KRAS G12C 2.5 nM, GppNHp 500 uM, SOS1 150 nM; 2 hours pre-incubation with inhibitor; read-out: G12C_exchange IC50
Method: Example A. GDP-GTP Exchange Assay.
The inhibitor potency of the exemplified compounds was determined in a fluorescence based guanine nucleotide exchange assay, which measures the exchange of bodipy-GDP (fluorescently labeled GDP) for GppNHp (Non-hydrolyzable GTP analog) to generate the active state of KRAS in the presence of SOS1 (guanine nucleotide exchange factor). Inhibitors were serially diluted in DMSO and a volume of 0.1 μL was transferred to the wells of a black low volume 384-well plate. 5 μL/well volume of bodipy-loaded KRAS G12C diluted to 5 nM in assay buffer (25 mM Hepes pH 7.5, 50 mM NaCl, 10 mM MgCl2 and 0.01% Brij-35) was added to the plate and pre-incubated with inhibitor for 2 hours at ambient temperature. Appropriate controls (enzyme with no inhibitor or with a G12C inhibitor (AMG -510)) were included on the plate. The exchange was initiated by the addition of a 5 μL/well volume containing 1 mM GppNHp and 300 nM SOS1 in assay buffer. The 10 μL/well reaction concentration of the bodipy-loaded KRAS G12C, GppNHp, and SOS1 were 2.5 nM, 500 uM, and 150 nM, respectively. The reaction plates were incubated at ambient temperature for 2 hours, a time estimated for complete GDP-GTP exchange in the absence of inhibitor. For the KRAS G12D and G12V mutants, similar guanine nucleotide exchange assays were used with 2.5nM as final concentration for the bodipy loaded KRAS proteins and with 4 hours and 3 hours incubation after adding GppNHp-SOS1 mixture for G12D and G12V respectively. A cyclic peptide described to selectively bind G12D mutant (Sakamoto et al., BBRC 484.3 (2017), 605-611) or internal compounds with confirmed binding were used as positive controls in the assay plates. Fluorescence intensities were measured on a PheraStar plate reader instrument (BMG Labtech) with excitation at 485 nm and emission at 520 nm.
Either GraphPad prism or XLfit was used to analyze the data. The IC50 values were derived by fitting the data to a four parameter logistic equation producing a sigmoidal dose -response curve with a variable Hill coefficient. Y=Bottom+(Top−Bottom)/(1+10^((LogIC50−X)*Hill slope)); XLfit equation: Y=(A+((B−A)/(1+((X/C)^D)))) where X is the logarithm of inhibitor concentration and Y is the response. Prism equation: […]

[1] = test system: MIA PaCa-2 (KRAS G12C) cells; test: Cellular pERK HTRF assay; type: cell-based, human; conditions: KRAS_G12C pERK assay, cells incubated with compounds 4 hours, read-out: G12C_pERK IC50
Method: Example C: Cellular pERK HTRF Assay
MIA PaCa-2 (KRAS G12C; ATCC® CRL-1420), A427 (KRAS G12D; ATCC® HTB53), HPAF-II (KRAS G12D; ATCC® CRL-1997) and NCI-H838 (KRAS WT; ATCC® CRL-5844) cells are purchased from ATCC and maintained in RPMI 1640 media supplemented with 10% FBS (Gibco/Life Technologies). The cells are plated at 5000 cells per well (8 uL) into Greiner 384-well low volume, flat-bottom, tissue culture treated white plates and incubated overnight at 37° C., 5% CO2. The next morning, test compound stock solutions are diluted in media at 3× the final concentration, and 4 uL are added to the cells. The plate is mixed by gentle rotation for 30 seconds (250rpm) at room temperature. The cells are incubated with the KRAS G12C and G12D compounds for 4 hours or 2 hours respectively at 37° C., 5% CO2.
4 uL of 4× lysis buffer with blocking reagent (1:25) (Cisbio) are added to each well and plates are rotated gently (300 rpm) for 30 minutes at room temperature. 4 uL per well of Cisbio anti Phospho-ERK 1/2 d2 is mixed with anti Phospho-ERK 1/2 Cryl)tate (1:1) are added to each well, mixed by rotation and incubated overnight in the dark at room temperature. Plates are read on the Pherastar plate reader at 665 nm and 620 nm wavelengths. IC50 determination is performed by fitting the curve of inhibitor percent inhibition versus the log of the inhibitor concentration using the GraphPad Prism 7 software.

IC50 (KRAS G12C) | IC50 ([1]; Homo sapiens, MIA PaCa-2) | IC50 [1] | Molecule
100 to 1000 nM |  |  | 4-(1-cyclopropyl-3-vinyl-5,6-dihydroimidazo[1,5-a]pyrazin-7(8H)-yl)-7-(2-fluoro-6-hydroxyl)henyl)-1-(2-isopropyl-4-methylpyridin-3-yl)quinazolin-2(1H)-one [Example 8]
≤ 100 nM | 1 to 5 µM |  | C=Cc1ncc2n1CCN(c1nc(OCC3CCCN3C)nc3c(F)c(-c4cc(O)cc5ccccc45)c(Cl)cc13)C2 (racemic) [Example 11, 4-(6-chloro-8-fluoro-2-((1-methylpyrrolidin-2-yl)methoxy)-4-(3-vinyl-5,6-dihydroimidazo[1,5-a]pyrazin-7(8H)-yl)quinazolin-7-yl)naphthalen-2-ol]
100 to 1000 nM | 5 to 10 µM |  | C=Cc1ncc2n1CCN(c1nc(OCC3CCCN3C)nc3c(F)c(-c4c(O)cccc4F)c(Cl)cc13)C2 (racemic) [Example 12, 2-(6-chloro-8-fluoro-2-((1-methylpyrrolidin-2-yl)methoxy)-4-(3-vinyl-5,6-dihydroimidazo[1,5-a]pyrazin-7(8H)-yl)quinazolin-7-yl)-3-fluorophenol]
100 to 1000 nM | 5 to 10 µM |  | C=Cc1ncc2n1CCN(c1nc(OCC3CCCN3C)nc3c(F)c(-c4c(C)ccc5[nH]ncc45)c(Cl)cc13)C2 (racemic) [Example 13, 6-chloro-8-fluoro-7-(5-methyl-1H-indazol-4-yl)-2-((1-methylpyrrolidin-2-yl)methoxy)-4-(3-vinyl-5,6-dihydroimidazo[1,5-a]pyrazin-7(8H)-yl)quinazoline]
100 to 1000 nM | 5 to 10 µM |  | C=Cc1ncc2n1CCN(c1nc(OC3CCCN(C)C3)nc3c(F)c(-c4cc(O)cc5ccccc45)c(Cl)cc13)C2 (racemic) [Example 18, 4-(6-chloro-8-fluoro-2-((1-methylpiperidin-3-yl)oxy)-4-(3-vinyl-5,6-dihydro-imidazo[1,5-a]pyrazin-7(8H)-yl)quinazolin-7-yl)naphthalen-2-ol]
100 to 1000 nM | 5 to 10 µM |  | C=Cc1ncc2n1CCN(c1nc(=O)n(-c3c(C)ccnc3C(C)C)c3nc(-c4c(O)cccc4F)c(F)cc13)C2 (single isomer, unassigned) [Example 1]
100 to 1000 nM |  | 5 to 10 µM | C=Cc1ncc2n1CCN(c1nc(=O)n(-c3c(C)ccnc3C(C)C)c3nc(-c4c(O)cccc4F)c(F)cc13)C2 (single isomer, unassigned) [Example 2]
100 to 1000 nM | 5 to 10 µM |  | C=Cc1ncc2n1CCN(c1nc(=O)n(CC3CC3)c3nc(-c4c(O)cccc4F)c(F)cc13)C2 [Example 3]
100 to 1000 nM | 5 to 10 µM |  | C=Cc1ncc2n1CCN(c1nc(=O)n(C(C)C)c3nc(-c4c(O)cccc4F)c(F)cc13)C2 [Example 4]
1000 to 5000 nM |  |  | C=Cc1ncc2n1CCN(c1nc(=O)n(CCOC)c3nc(-c4c(O)cccc4F)c(F)cc13)C2 [Example 5]
1000 to 5000 nM |  |  | Cc1ccnc(C(C)C)c1-n1c(=O)nc(N2CCn3c(cnc3/C=C/c3cc(F)cc(F)c3)C2)c2cc(F)c(-c3c(O)cccc3F)nc21 [Example 6]
1000 to 5000 nM |  |  | Cc1ccnc(C(C)C)c1-n1c(=O)nc(N2CCn3c(cnc3/C=C/c3ccc(F)cc3F)C2)c2cc(F)c(-c3c(O)cccc3F)nc21 [Example 7]
1000 to 5000 nM |  |  | C=Cc1nc(CN2CC(C(F)(F)F)C2)c2n1CCN(c1nc(=O)n(-c3c(C)ccnc3C(C)C)c3nc(-c4c(O)cccc4F)c(F)cc13)C2 [Example 9]
1000 to 5000 nM |  |  | C=Cc1nc(CN(C)CC#N)c2n1CCN(c1nc(=O)n(-c3c(C)ccnc3C(C)C)c3nc(-c4c(O)cccc4F)c(F)cc13)C2 [Example 10]
100 to 1000 nM | 1 to 5 µM |  | C=Cc1ncc2n1CCN(c1nc(OCCN(C)C)nc3c(F)c(-c4cc(O)cc5ccccc45)c(Cl)cc13)C2 [Example 14, 4-(6-chloro-2-(2-(dimethylamino)ethoxy)-8-fluoro-4-(3-vinyl-5,6-dihydroimidazo[1,5-a]pyrazin-7(8H)-yl)quinazolin-7-yl)naphthalen-2-ol]
100 to 1000 nM | 5 to 10 µM |  | C=Cc1ncc2n1CCN(c1nc(OC3CCN(C)CC3)nc3c(F)c(-c4cc(O)cc5ccccc45)c(Cl)cc13)C2 [Example 15, 4-(6-chloro-8-fluoro-2-((1-methylpiperidin-4-yl)oxy)-4-(3-vinyl-5,6-dihydroimidazo[1,5-a]pyrazin-7(8H)-yl)quinazolin-7-yl)naphthalen-2-ol]
100 to 1000 nM | 5 to 10 µM |  | C=Cc1ncc2n1CCN(c1nc(OCCN3CCOCC3)nc3c(F)c(-c4cc(O)cc5ccccc45)c(Cl)cc13)C2 [Example 16, 4-(6-chloro-8-fluoro-2-(2-morpholinoethoxy)-4-(3-vinyl-5,6-dihydroimidazo-[1,5-a]pyrazin-7(8H)-yl)quinazolin-7-yl)naphthalen-2-ol]
100 to 1000 nM | 1 to 5 µM |  | C=Cc1ncc2n1CCN(c1nc(OC[C@@H]3CCCN3C)nc3c(F)c(-c4cc(O)cc5ccccc45)c(Cl)cc13)C2 [Example 17, 4-(6-chloro-8-fluoro-2-(((S)-1-methylpyrrolidin-2-yl)methoxy)-4-(3-vinyl-5,6-dihydroimidazo[1,5-a]pyrazin-7(8H)-yl)quinazolin-7-yl)naphthalen-2-ol]
100 to 1000 nM | 1 to 5 µM |  | C=Cc1ncc2n1CCN(c1nc(N3CC(N(C)C)C3)nc3c(F)c(-c4cc(O)cc5ccccc45)c(Cl)cc13)C2 [Example 19, 4-(6-chloro-2-(3-(dimethylamino)azetidin-1-yl)-8-fluoro-4-(3-vinyl-5,6-dihydroimidazo[1,5-a]pyrazin-7(8H)-yl)quinazolin-7-yl)naphthalen-2-ol]

Reference: US11999752B2, “Vinyl imidazole compounds as inhibitors of KRAS” (Incyte Corporation, priority 2020, dated 2024)
